{"source": "patent US11130769B2", "about": "(Prelude Therapeutics Incorporated, priority 2018, dated 2021)", "key": {"H929 cells": {"test_system": "H929 cells", "assay": "Cell viability assay (H929 10 FBS)", "assay_type": "cell-based", "settings": "read-out: H929_10FBS IC50", "method": "Cell Viability Assay (H929 10 FBS)\nDispense 10 μL aliquot of prepared H929 cells (1:1 ratio of cells:Trypan Blue (#1450013, Bio-Rad)) onto cell counting slide (#145-0011, Bio-Rad) and obtain cell density and cell viability using cell counter (TC20, Bio-Rad). Remove appropriate volume of resuspended cells from culture flask to accommodate 4000 cells/well @ 10 μL/well. Transfer H929 cells to 50 mL conical (#430290, Corning). Spin down at 1000 rpm for 5 min using tabletop centrifuge (SPINCHRON 15, Beckman). Discard supernatant and resuspend cell pellet in modified RPMI 1640 (#10-040-CV, Corning) cell culture media containing 10% FBS (F2422-500 ML, Sigma), sodium pyruvate (100 mM) (#25-000-CL, Corning), HEPES buffer (1 M) (#25-060-CL, Corning) and glucose (200 g/L) (A24940-01, Gibco) to a cell density of 400,000 cells/mL. Dispense 10 μL of resuspended H929 cells per well in 384-well small volume TC treated plate (#784080, Greiner Bio-one) using standard cassette (#50950372, Thermo Scientific) on Multi-drop Combi (#5840310, Thermo Scientific) in laminar flow cabinet. Dispense compounds onto plates using digital liquid dispenser (D300E, Tecan). Incubate plates in humidified tissue culture incubator @ 37° C. for 24 hours. Add 10 μL of prepared CellTiTer-Glo® detection buffer (G7570, Promega) or ATPlite 1 Step detection reagent (#6016731, Perkin Elmer) to each well of 384-well plate using small tube cassette (#24073295, Thermo Scientific) on Combi multi drop, incubate @ RT for 30-60 min. Read plates with microplate reader (PheraStar, BMG Labtech) using 384 well luminescence mode."}, "MCL-1": {"biological_target": "MCL-1 (Homo sapiens (Human), UniProt Q07820)", "sequence (Q07820 whole entry)": "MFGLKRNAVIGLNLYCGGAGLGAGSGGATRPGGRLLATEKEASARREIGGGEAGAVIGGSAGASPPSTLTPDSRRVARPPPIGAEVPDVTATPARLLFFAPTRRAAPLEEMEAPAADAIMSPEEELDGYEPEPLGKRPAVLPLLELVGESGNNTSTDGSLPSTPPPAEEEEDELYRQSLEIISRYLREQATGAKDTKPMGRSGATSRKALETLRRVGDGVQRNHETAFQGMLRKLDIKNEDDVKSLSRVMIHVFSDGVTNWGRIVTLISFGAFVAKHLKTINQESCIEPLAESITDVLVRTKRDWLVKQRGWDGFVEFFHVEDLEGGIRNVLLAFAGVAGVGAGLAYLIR", "assay": "Cell free Mcl-1:Bim affinity assay (fluorescence polarization competition)", "assay_type": "binding", "settings": "15 nM MCL-1, 5 nM FITC-Bim, 1 hour at room temperature, read-out: BIM_Ki", "method": "The binding affinity of each compound was measured via a fluorescence polarization competition assay, in which the compound competes for the same binding site with the ligand, and thus leads to a dose-dependent anisotropy reduction. The tracer ligand utilized was a fluorescein isothiocyanate labelled peptide (FITC-[…]) derived from Bim (GenScript).\nThe assay was carried out in black half-area 96-well NBS plate (Corning), containing 15 nM of MCL-1 (BPS Bioscience), 5 nM of FITC-Bim and 3-fold serial diluted test compounds in a total volume of 50 μL of assay buffer (20 mM HEPES, 50 mM NaCl, 0.002% Tween 20, 1 mM TCEP, and 1% DMSO). The reaction plate was incubated for 1 hour at room temperature. The change of anisotropy is measured with an Envision multimode plate reader (PerkinElmer) at emission wavelength 535 nm. Fluorescence polarization was calculated in mP unit and the percentage inhibition was calculated by % inhibition=100×(mPDMSO−mP)/(mPDMSO−mPPC), in which mPDMSO is the DMSO control, and mPpc is the positive control. IC50 values were determined from a 10-point dose response curve by fitting the percent inhibition against compound concentration using the GraphPad Prism software. The inhibition constant Ki was subsequently calculated according to the Nikolovska-Coleska's equation (Anal. Biochem., 2004, 332, 261),\n[formula] • where [I]50 is the concentration of the free inhibitor at 50% inhibition, [L]50 is the concentration of the free labeled ligand at 50% inhibition, [P]0 is the concentration of the free protein at 0% inhibition, and Kd is the dissociation constant of the protein-ligand complex. See Table F. Caspase 3/7 Activity Assay"}, "[1]": {"settings": "Homo sapiens, NCI-H929, 24 hours"}}, "note": "Read-outs that look alike come from different tables or passages of the source.", "data": [{"compound": "CC1(C)OC/C=C/[C@H](OCCN2CCOCC2)[C@@H]2CC[C@H]2CN2C[C@@]3(CCCc4cc(Cl)ccc43)COc3ccc(cc32)S(=O)(=O)NC1=O", "note": "[Example 270, (3R,6R,7S,8E,22S)-6′-Chloro-12,12-dimethyl-7-(2-morpholinoethoxy)-15,15-dioxo-spiro[11,20-dioxa-15-thia-1,14-diazatetracyclo[14.7.2.03,6.019,24]pentacosa-8,16,18,24-tetraene-22,1′-tetralin]-13-one]", "values": [{"measurement": "IC50", "setting": "H929 cells; [1]", "value": "< 500", "unit": "nM"}, {"measurement": "Ki", "setting": "MCL-1; class symbols", "value": "< 1", "unit": "nM"}]}, {"compound": "CO[C@@H]1/C=C/CO[C@H](C)C(=O)NS(=O)(=O)c2ccc3c(c2)N(C[C@@H]2CC[C@H]21)C[C@@]1(CCCc2cc(Cl)ccc21)CO3", "note": "[Example 115, (3R,6R,7R,8E,12R,22S)-6′-Chloro-7-methoxy-12-methyl-15,15-dioxo-spiro[11,20-dioxa-15-thia-1,14-diazatetracyclo[14.7.2.03,6.019,24]pentacosa-8,16,18,24-tetraene-22,1′-tetralin]-13-one]", "values": [{"measurement": "IC50", "setting": "H929 cells; [1]", "value": "> 1000", "unit": "nM"}, {"measurement": "Ki", "setting": "MCL-1; class symbols", "value": "1 to 100", "unit": "nM"}]}, {"compound": "CO[C@@H]1CCCCC(=O)NS(=O)(=O)c2ccc3c(c2)N(C[C@@H]2CC[C@H]21)C[C@@]1(CCCc2cc(Cl)ccc21)CO3", "note": "[Example 76, (3R,6R,7R,21S)-6′-Chloro-7-methoxy-14,14-dioxo-spiro[19-oxa-14-thia-1,13-diazatetracyclo[13.7.2.03,6.018,23]tetracosa-15,17,23-triene-21,1′-tetralin]-12-one]", "values": [{"measurement": "IC50", "setting": "H929 cells; [1]", "value": "> 1000", "unit": "nM"}, {"measurement": "Ki", "setting": "MCL-1; class symbols", "value": "1 to 100", "unit": "nM"}]}, {"compound": "CN(C)CCO[C@@H]1/C=C/COC(C)(C)C(=O)NS(=O)(=O)c2ccc3c(c2)N(C[C@@H]2CC[C@H]21)C[C@@]1(CCCc2cc(Cl)ccc21)CO3", "note": "[Example 273, (3R,6R,7R,8E,22S)-6′-Chloro-7-[2-(dimethylamino)ethoxy]-12,12-dimethyl-15,15-dioxo-spiro[11,20-dioxa-15-thia-1,14-diazatetracyclo[14.7.2.03,6.019,24]pentacosa-8,16,18,24-tetraene-22,1′-tetralin]-13-one]", "values": [{"measurement": "IC50", "setting": "H929 cells; [1]", "value": "< 1000", "unit": "nM"}, {"measurement": "Ki", "setting": "MCL-1; class symbols", "value": "< 1", "unit": "nM"}]}, {"compound": "CC(C)(C)OC(=O)N1CCC(C(=O)NS(=O)(=O)c2ccc3c(c2)N(CC2CCC2)CC2(CCCc4cc(Cl)ccc42)CO3)CC1", "note": "(stereo not shown) [Example 21, tert-Butyl 4-[[6′-chloro-5-(cyclobutylmethyl)spiro[2,4-dihydro-1,5-benzoxazepine-3,1′-tetralin]-7-yl]sulfonylcarbamoyl]piperidine-1-carboxylate]", "values": [{"measurement": "IC50", "setting": "H929 cells; [1]", "value": "> 1000", "unit": "nM"}, {"measurement": "Ki", "setting": "MCL-1; numeric values", "value": 53.3, "unit": "nM"}]}, {"compound": "CO[C@@H]1/C=C/CN(C)CC2(CCC2)C(=O)NS(=O)(=O)c2ccc3c(c2)N(C[C@@H]2CC[C@H]21)C[C@@]1(CCCc2cc(Cl)ccc21)CO3", "note": "[Example 27, (3R,6R,7R,8E,23S)-6′-Chloro-7-methoxy-11-methyl-13,13-(1,3-propylene)-16,16-dioxo-spiro[21-oxa-16-thia-1,11,15-triazatetracyclo[15.7.2.03,6.020,25]hexacosa[8,17(26),18,20(25)]tetraene-23,1′-tetralin]-14-one]", "values": [{"measurement": "IC50", "setting": "H929 cells; [1]", "value": "> 1000", "unit": "nM"}, {"measurement": "Ki", "setting": "MCL-1; class symbols", "value": "1 to 100", "unit": "nM"}]}, {"compound": "CCN1C/C=C/[C@H](OC(=O)N2CC(NC)C2)[C@@H]2CC[C@H]2CN2C[C@@]3(CCCc4cc(Cl)ccc43)COc3ccc(cc32)S(=O)(=O)NC(=O)C1(C)C", "note": "[Example 223, [(3R,6R,7S,8E,22S)-6′-Chloro-11-ethyl-12,12-dimethyl-13,15,15-trioxo-spiro[20-oxa-15-thia-1,11,14-triazatetracyclo[14.7.2.03,6.019,24]pentacosa-8,16,18,24-tetraene-22,1′-tetralin]-7-yl] 3-(methylamino)azetidine-1-carboxylate]", "values": [{"measurement": "IC50", "setting": "H929 cells; [1]", "value": "< 500", "unit": "nM"}, {"measurement": "Ki", "setting": "MCL-1; class symbols", "value": "< 1", "unit": "nM"}]}, {"compound": "COCCNC(=O)O[C@H]1/C=C/COC(C)(C)C(=O)NS(=O)(=O)c2ccc3c(c2)N(C[C@@H]2CC[C@H]21)C[C@@]1(CCCc2cc(Cl)ccc21)CO3", "note": "[Example 191, [(3R,6R,7S,8E,22S)-6′-Chloro-12,12-dimethyl-13,15,15-trioxo-spiro[11,20-dioxa-15-thia-1,14-diazatetracyclo[14.7.2.03,6.019,24]pentacosa-8,16,18,24-tetraene-22,1′-tetralin]-7-yl] N-(2-methoxyethyl)carbamate]", "values": [{"measurement": "IC50", "setting": "H929 cells; [1]", "value": "< 500", "unit": "nM"}, {"measurement": "Ki", "setting": "MCL-1; class symbols", "value": "< 1", "unit": "nM"}]}, {"compound": "CO[C@@H]1/C=C/CN(C)[C@@H](C(C)C)C(=O)NS(=O)(=O)c2ccc3c(c2)N(C[C@@H]2CC[C@H]21)C[C@@]1(CCCc2cc(Cl)ccc21)CO3", "note": "[Example 129, (3R,6R,7R,8E,12S,22S)-6′-Chloro-7-methoxy-11-methyl-12-isopropyl-15,15-dioxo-spiro[20-oxa-15-thia-1,11,14-triazatetracyclo[14.7.2.03,6.019,24]pentacosa-8,16,18,24-tetraene-22,1′-tetralin]-13-one]", "values": [{"measurement": "IC50", "setting": "H929 cells; [1]", "value": "> 1000", "unit": "nM"}, {"measurement": "Ki", "setting": "MCL-1; class symbols", "value": "1 to 100", "unit": "nM"}]}, {"compound": "CN1C/C=C/[C@H](OC(=O)N[C@@H]2CCOC2)[C@@H]2CC[C@H]2CN2C[C@@]3(CCCc4cc(Cl)ccc43)COc3ccc(cc32)S(=O)(=O)NC(=O)C12CCC2", "note": "[Example 243, [(3R,6R,7S,8E,22S)-6′-Chloro-11-methyl-12,12-(1,3-propylene)-13,15,15-trioxo-spiro[20-oxa-15-thia-1,11,14-triazatetracyclo[14.7.2.03,6.019,24]pentacosa-8,16,18,24-tetraene-22,1′-tetralin]-7-yl] N-[(3R)-tetrahydrofuran-3-yl]carbamate]", "values": [{"measurement": "IC50", "setting": "H929 cells; [1]", "value": "< 500", "unit": "nM"}, {"measurement": "Ki", "setting": "MCL-1; class symbols", "value": "< 1", "unit": "nM"}]}, {"compound": "(4′Z,5′E)-6-Chloro-3,4-dihydro-2H-spiro[naphthalene-1,3′-13-thia-12-aza-1(5,7)-benzo[b][1,4]oxazepina-3(4,1)-pyrazolacyclotridecaphanen]-5′-en-11′-one 13′,13′-dioxide and (4′Z,5′Z)-6-chloro-3,4-dihydro-2H-spiro[naphthalene-1,3′-13-thia-12-aza-1(5,7)-benzo[b][1,4]oxazepina-3(4,1)-pyrazolacyclotridecaphanen]-5′-en-11′-one 13′,13′-dioxide [Example 11]", "values": [{"measurement": "IC50", "setting": "H929 cells; 24 hours", "value": "> 1000", "unit": "nM"}, {"measurement": "Ki", "setting": "MCL-1; numeric values", "value": 503, "unit": "nM"}]}, {"compound": "COCCN1CCCN(CCO[C@H]2/C=C/CN(C)C(C)(C)C(=O)NS(=O)(=O)c3ccc4c(c3)N(C[C@@H]3CC[C@H]32)C[C@@]2(CCCc3cc(Cl)ccc32)CO4)CC1", "note": "[Example 277, (3R,6R,7S,8E,22S)-6′-Chloro-7-[2-[4-(2-methoxyethyl)-1,4-diazepan-1-yl]ethoxy]-11,12,12-trimethyl-15,15-dioxo-spiro[20-oxa-15-thia-1,11,14-triazatetracyclo[14.7.2.03,6.019,24]pentacosa-8,16,18,24-tetraene-22,1′-tetralin]-13-one]", "values": [{"measurement": "IC50", "setting": "H929 cells; [1]", "value": "> 1000", "unit": "nM"}, {"measurement": "Ki", "setting": "MCL-1; class symbols", "value": "1 to 100", "unit": "nM"}]}, {"compound": "CC1(C)OC/C=C/[C@H](OCC(=O)N2C[C@@H](F)[C@H](F)C2)[C@@H]2CC[C@H]2CN2C[C@@]3(CCCc4cc(Cl)ccc43)COc3ccc(cc32)S(=O)(=O)NC1=O", "note": "[Example 290, (3R,6R,7S,8E,22S)-6′-Chloro-7-[2-[(3R,4R)-3,4-difluoropyrrolidin-1-yl]-2-oxo-ethoxy]-12,12-dimethyl-15,15-dioxo-spiro[11,20-dioxa-15-thia-1,14-diazatetracyclo[14.7.2.03,6.019,24]pentacosa-8,16,18,24-tetraene-22,1′-tetralin]-13-one]", "values": [{"measurement": "IC50", "setting": "H929 cells; [1]", "value": "< 500", "unit": "nM"}, {"measurement": "Ki", "setting": "MCL-1; class symbols", "value": "< 1", "unit": "nM"}]}, {"compound": "CO[C@@H]1/C=C/COC2(CC2)C(=O)NS(=O)(=O)c2ccc3c(c2)N(C[C@@H]2CC[C@H]21)C[C@@]1(CCCc2cc(Cl)ccc21)CO3", "note": "[Example 29, (3R,6R,7R,8E,22S)-6′-Chloro-7-methoxy-12,12-ethylene-15,15-dioxo-spiro[[11,20]dioxa-15-thia-1,14-diazatetracyclo[14.7.2.03,6.019,24]pentacosa[8,16(25),17,19(24)]tetraene-22,1′-tetralin]-13-one]", "values": [{"measurement": "IC50", "setting": "H929 cells; [1]", "value": "< 1000", "unit": "nM"}, {"measurement": "Ki", "setting": "MCL-1; class symbols", "value": "< 1", "unit": "nM"}]}]}
